Measurements reported in article PMC12525688, “Anti-Helicobacter pylori Activity and Gastroprotective Effects of Diacetylcurcumin and Four Metal Derivatives” (Molecules, 2025).
Like-named read-outs stand apart in the source and are kept apart here.

Experiments:
[1] = target: T1, Helicobacter pylori urease (Helicobacter pylori, UniProt P69996); test: Berthelot colorimetric urease activity assay with lysate supernatant (partially purified urease); type: biochemical
T1 construct: gene ureB; native urease from supernatant of sonicated H. pylori ATCC 43504; with urease subunit alpha (UreA)
T1 sequence (P14916 whole entry): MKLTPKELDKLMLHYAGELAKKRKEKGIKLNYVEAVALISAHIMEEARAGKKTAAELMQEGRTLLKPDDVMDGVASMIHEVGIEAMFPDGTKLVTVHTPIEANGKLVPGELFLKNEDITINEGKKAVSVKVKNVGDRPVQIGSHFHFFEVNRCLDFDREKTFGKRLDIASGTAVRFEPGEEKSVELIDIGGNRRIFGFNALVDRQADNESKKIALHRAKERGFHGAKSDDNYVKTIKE
T1 sequence (P69996 whole entry): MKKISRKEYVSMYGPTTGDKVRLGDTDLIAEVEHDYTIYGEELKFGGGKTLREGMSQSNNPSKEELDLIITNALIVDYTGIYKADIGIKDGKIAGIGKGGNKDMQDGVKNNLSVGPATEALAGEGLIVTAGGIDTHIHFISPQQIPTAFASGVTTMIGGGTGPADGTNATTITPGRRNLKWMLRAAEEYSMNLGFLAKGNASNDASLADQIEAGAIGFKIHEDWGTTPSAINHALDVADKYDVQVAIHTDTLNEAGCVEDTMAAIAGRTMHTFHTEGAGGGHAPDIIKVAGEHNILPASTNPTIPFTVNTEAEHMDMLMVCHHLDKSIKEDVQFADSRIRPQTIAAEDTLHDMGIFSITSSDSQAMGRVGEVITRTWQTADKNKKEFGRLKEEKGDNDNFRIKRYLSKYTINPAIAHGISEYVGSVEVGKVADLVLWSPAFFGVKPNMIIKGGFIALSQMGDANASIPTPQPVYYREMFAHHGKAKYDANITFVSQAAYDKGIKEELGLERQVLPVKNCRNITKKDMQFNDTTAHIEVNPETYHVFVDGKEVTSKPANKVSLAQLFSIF

E. coli DNA gyrase = target: T2, E. coli DNA gyrase (Escherichia coli, UniProt P0AES4+P0AES6); test: DNA supercoiling assay (agarose gel), […] inhibition at […]; type: biochemical
T2 construct: gene gyrA; DNA gyrase of the TopoGEN E. coli DNA Gyrase Drug Screening kit; with DNA gyrase subunit B (GyrB)
T2 sequence (P0AES4 2-875, one chain of several): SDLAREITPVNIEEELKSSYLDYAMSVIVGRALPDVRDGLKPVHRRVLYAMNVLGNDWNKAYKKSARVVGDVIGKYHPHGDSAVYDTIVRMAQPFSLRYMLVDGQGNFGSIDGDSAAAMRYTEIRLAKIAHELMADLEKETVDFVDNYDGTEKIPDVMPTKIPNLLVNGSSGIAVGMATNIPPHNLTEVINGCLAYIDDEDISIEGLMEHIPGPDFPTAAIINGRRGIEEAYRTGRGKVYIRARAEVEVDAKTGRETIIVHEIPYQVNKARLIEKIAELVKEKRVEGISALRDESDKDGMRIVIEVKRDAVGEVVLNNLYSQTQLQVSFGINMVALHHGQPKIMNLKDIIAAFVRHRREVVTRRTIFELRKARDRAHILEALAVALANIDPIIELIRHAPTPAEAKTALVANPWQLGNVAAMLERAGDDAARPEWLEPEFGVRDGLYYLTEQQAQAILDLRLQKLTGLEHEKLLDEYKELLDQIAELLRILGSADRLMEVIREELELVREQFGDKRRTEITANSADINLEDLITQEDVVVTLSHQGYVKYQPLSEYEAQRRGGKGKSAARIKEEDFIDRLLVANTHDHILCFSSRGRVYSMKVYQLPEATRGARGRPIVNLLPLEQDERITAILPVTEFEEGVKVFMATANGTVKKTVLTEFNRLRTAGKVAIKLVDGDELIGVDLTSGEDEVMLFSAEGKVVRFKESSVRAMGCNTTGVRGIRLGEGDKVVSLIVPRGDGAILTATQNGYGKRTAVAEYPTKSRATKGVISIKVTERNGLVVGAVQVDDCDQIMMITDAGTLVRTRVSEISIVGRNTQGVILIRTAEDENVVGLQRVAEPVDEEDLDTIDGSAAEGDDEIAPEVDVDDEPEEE

CC(=O)NO [AHA, acetohydroxamic acid]
IC50 ([1]; read-out: IC50): 488 µM

COc1cc(/C=C/C(=O)C=C(/C=C/c2ccc(OC(C)=O)c(OC)c2)[O][Cu][O]C(=CC(=O)/C=C/c2ccc(OC(C)=O)c(OC)c2)/C=C/c2ccc(OC(C)=O)c(OC)c2)ccc1OC(C)=O [DAC2-Cu]
IC50 [1]: 20.4 µM

COc1cc(/C=C/C(=O)C=C(/C=C/c2ccc(OC(C)=O)c(OC)c2)[O][Zn][O]C(=CC(=O)/C=C/c2ccc(OC(C)=O)c(OC)c2)/C=C/c2ccc(OC(C)=O)c(OC)c2)ccc1OC(C)=O [DAC2-Zn]
IC50 [1]: 12.4 µM

O=C(O)c1cn(C2CC2)c2cc(N3CCNCC3)c(F)cc2c1=O [ciprofloxacin]
inhibition at 3 µM (E. coli DNA gyrase): 100%
